Assays:
[1] = system: Plasmodium falciparum (strain NF54); experiment: Antimalarial activity test: growth of Plasmodium falciparum in infected human erythrocytes, 3H-hypoxanthine incorporation; format: cell-based; details: strain NF54 sensitive to chloroquine, 72 h total incubation
Experimental: The compounds according to the invention underwent pharmacological trials to determine their inhibitory effect on the growth of Plasmodium falciparum (strain NF54 sensitive to inhibition with chloroquine) in an in vitro test using infected human erythrocytes. The growth of the parasites is measured via the incorporation of tritiated hypoxanthine compared with the incorporation in the absence of drug. The tests are performed in 96-well microplates (Falcon™ 96-well microtiter plates, ref. No. 353072) in RPMI 1640 solutions (10.44 g/l) (without hypoxanthine) with HEPES (5.94 g/l), NaHCO3 (2.1 g/l), neomycin ([…])+AlbumaxR II (5 g/l) supplemented with human erythrocytes with a final hematocrit of 1.25% and a final parasitemia of 0.15%.
The stock solution of the compounds is prepared at 10 mg/mL in DMSO. For the test, fresh solutions at the desired concentrations are prepared in RPMI medium. For the test, 100 μl of compound are mixed with 100 μl of infected blood. For the determination of the IC50 values, the compounds are tested in twofold serial dilution.
The plates are incubated at 37° C. under a humid atmosphere with 93% N2, 4% CO2 and 3% O2. After 48 hours, 50 μl of ^3H-hypoxanthine (=0.5 μCi) in RPMI medium are added to each well and incubation is continued for a further 24 hours. Next, the plates are washed with distilled water and the cell lyzate is transferred onto fiberglass filters. The filters are dried and the radioactivity is determined by liquid scintillation. The results in cpm are converted into percentages of inhibition. The inhibitory activity is given by the concentration that inhibits 50% of the growth of the parasite relative to a control without compound.

human PI3Kα = human PI3Kα (Homo sapiens (Human), UniProt P42336); experiment: Human PI3Kα activity test (luciferin/luciferase ATP consumption, KinaseGlo); format: biochemical; details: PI3Kα (p110α/p85α), 50 μM PIP2, 2 μM ATP, 90 minutes; read-out: IC50 Human PI3Kα
Experimental: The test uses a luciferin/luciferase system to measure the concentration of ATP and its consumption during the enzymatic reaction.
After 90 minutes, the reaction is quenched by adding 20 μl/well of KinaseGlo reagent (Promega V6713). After 10 minutes in the dark, the luminescence is read using a PHERAStar microplate reader (reading at 0.8 sec/well).

[2] = Plasmodium falciparum, Erythrocyte

Sequence of human PI3Kα (P42336 whole entry): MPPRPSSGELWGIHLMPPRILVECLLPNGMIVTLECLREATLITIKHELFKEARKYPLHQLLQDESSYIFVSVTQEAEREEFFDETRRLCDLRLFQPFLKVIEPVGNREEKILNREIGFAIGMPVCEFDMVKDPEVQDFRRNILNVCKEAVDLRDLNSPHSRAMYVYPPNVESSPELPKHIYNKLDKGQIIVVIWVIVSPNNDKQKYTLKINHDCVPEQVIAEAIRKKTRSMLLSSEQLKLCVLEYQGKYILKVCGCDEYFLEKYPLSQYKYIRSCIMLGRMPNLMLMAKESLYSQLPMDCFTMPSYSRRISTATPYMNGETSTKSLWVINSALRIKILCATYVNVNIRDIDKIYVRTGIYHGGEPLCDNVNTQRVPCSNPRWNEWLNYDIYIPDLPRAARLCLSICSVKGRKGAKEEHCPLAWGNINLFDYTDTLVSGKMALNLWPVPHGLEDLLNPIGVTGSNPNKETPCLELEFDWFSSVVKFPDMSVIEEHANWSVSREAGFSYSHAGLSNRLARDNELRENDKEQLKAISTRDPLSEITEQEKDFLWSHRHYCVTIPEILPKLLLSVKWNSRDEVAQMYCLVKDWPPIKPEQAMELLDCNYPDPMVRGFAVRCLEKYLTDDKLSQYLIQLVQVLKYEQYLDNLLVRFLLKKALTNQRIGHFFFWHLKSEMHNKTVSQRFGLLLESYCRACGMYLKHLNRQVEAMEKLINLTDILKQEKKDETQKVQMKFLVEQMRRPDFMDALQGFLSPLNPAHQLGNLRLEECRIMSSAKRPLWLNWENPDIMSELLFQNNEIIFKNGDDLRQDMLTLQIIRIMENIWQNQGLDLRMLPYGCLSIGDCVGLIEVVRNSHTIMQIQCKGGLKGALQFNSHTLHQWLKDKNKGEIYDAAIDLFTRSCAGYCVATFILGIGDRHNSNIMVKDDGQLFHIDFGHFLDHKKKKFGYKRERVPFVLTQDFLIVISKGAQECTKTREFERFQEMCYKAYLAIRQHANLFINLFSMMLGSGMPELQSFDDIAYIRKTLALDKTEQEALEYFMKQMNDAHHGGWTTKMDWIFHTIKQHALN
Sequence of human PI3Kα (P27986 whole entry partner): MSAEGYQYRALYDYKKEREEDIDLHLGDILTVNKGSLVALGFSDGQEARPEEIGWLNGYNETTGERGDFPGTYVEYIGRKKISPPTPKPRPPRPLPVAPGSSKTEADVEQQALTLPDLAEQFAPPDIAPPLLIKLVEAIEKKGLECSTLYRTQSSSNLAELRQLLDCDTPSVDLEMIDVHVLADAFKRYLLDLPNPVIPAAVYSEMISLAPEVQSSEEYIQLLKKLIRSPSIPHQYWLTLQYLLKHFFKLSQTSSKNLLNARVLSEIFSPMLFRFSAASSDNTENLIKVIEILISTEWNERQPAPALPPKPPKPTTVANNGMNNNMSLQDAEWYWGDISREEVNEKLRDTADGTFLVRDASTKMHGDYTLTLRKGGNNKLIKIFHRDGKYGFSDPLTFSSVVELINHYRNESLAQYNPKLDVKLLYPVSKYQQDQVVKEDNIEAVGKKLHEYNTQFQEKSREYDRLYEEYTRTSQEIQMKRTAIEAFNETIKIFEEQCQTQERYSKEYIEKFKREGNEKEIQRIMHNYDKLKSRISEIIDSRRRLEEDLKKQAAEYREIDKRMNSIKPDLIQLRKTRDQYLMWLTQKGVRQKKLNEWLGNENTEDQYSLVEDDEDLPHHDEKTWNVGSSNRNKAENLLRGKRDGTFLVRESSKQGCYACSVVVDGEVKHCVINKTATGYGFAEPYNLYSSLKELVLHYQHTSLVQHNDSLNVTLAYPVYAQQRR

Row | IC50 [1] [nM] | IC50 (human PI3Kα) [nM] | IC50 [1, 2] [nM] | Structure (SMILES)
1 | 93 | > 10000 |  | Cc1ncccc1C(=O)CN1c2nc(N3C[C@@H]4C[C@H]3CO4)cc(=O)n2C[C@@]1(C)C(F)(F)F [Compound 18, 2-Methyl-1-[2-(2-methylpyrid-3-yl)-2-oxoethyl]-7-(1S,4S)-2-oxa-5-azabicyclo[2.2.1]hept-5-yl-2-((S)-trifluoromethyl)-2,3-dihydro-1H-imidazo[1,2-a]pyrimidin-5-one]
2 |  | > 10000 | 24 | Cc1ncccc1C(=O)CN1c2nc(N3C[C@@H]4C[C@H]3CO4)cc(=O)n2CC[C@H]1C(F)(F)F [Compound 19, (8S)-9-[2-(2-methylpyrid-3-yl)-2-oxoethyl]-2-(1S,4S)-2-oxa-5-azabicyclo[2.2.1]hept-5-yl-8-trifluoromethyl-6,7,8,9-tetrahydropyrimido[1,2-a]pyrimidin-4-one]
3 |  | > 10000 | 35 | Cc1ccncc1C(=O)CN1c2nc(N3C[C@@H]4C[C@H]3CO4)cc(=O)n2CC[C@H]1C(F)(F)F [Compound 20, (8S)-9-[2-(4-methylpyrid-3-yl)-2-oxoethyl]-2-(1S,4S)-2-oxa-5-azabicyclo[2.2.1]hept-5-yl-8-trifluoromethyl-6,7,8,9-tetrahydropyrimido[1,2-a]pyrimidin-4-one]
4 |  | > 10000 | 82 | C[C@@]1(C(F)(F)F)Cn2c(nc(N3C[C@@H]4C[C@H]3CO4)cc2=O)N1CC(=O)c1cccnc1 [Compound 21, 2-methyl-7-(1S,4S)-2-oxa-5-azabicyclo[2.2.1]hept-5-yl-1-(2-oxo-2-pyrid-3-ylethyl)-2-((S)-trifluoromethyl)-2,3-dihydro-1H-imidazo[1,2-a]pyrimidin-5-one]
5 |  | > 10000 | > 200 | O=C(CN1c2nc(N3C[C@@H]4C[C@H]3CO4)cc(=O)n2CC[C@H]1C(F)(F)F)c1ccc(NC2CC2)nc1 [Compound 22, (8S)-9-[2-(6-Cyclopropylaminopyrid-3-yl)-2-oxoethyl]-2-(1S,4S)-2-oxa-5-azabicyclo[2.2.1]hept-5-yl-8-trifluoromethyl-6,7,8,9-tetrahydropyrimido[1,2-a]pyrimidin-4-one]
6 |  | 1040 | 3 | CCNC(=O)Nc1ccc(CCN2c3nc(N4C[C@@H]5C[C@H]4CO5)cc(=O)n3CC[C@H]2C(F)(F)F)cc1 [Compound 23, 1-ethyl-3-{4-[2-((8S)-8-(1S,4S)-2-oxa-5-azabicyclo[2.2.1]hept-5-yl-6-oxo-2-trifluoromethyl-3,4-dihydro-2H,6H-pyrimido[1,2-a]pyrimidin-1-yl)ethyl]phenyl}urea]
7 |  | 2440 | 8 | CCNC(=O)Nc1ccc(CCN2c3nc(N4C[C@@H]5C[C@H]4CO5)cc(=O)n3C[C@@]2(C)C(F)(F)F)cc1 [Compound 24, 1-ethyl-3-(4-{2-[(1S,4S)-2-methyl-7-2-oxa-5-azabicyclo[2.2.1]hept-5-yl-5-oxo-2-((S)-trifluoromethyl)-2,3-dihydro-5H-imidazo[1,2-a]pyrimidin-1-yl]ethyl}phenyl)urea]
8 |  | 1000 | < 3.4 | Cc1ncsc1CCN1c2nc(N3C[C@@H]4C[C@H]3CO4)cc(=O)n2CC[C@H]1C(F)(F)F [Compound 25, (8S)-9-[2-(4-Methylthiazol-5-yl)ethyl]-2-(1S,4S)-2-oxa-5-azabicyclo[2.2.1]hept-5-yl-8-trifluoromethyl-6,7,8,9-tetrahydropyrimido[1,2-a]pyrimidin-4-one]
9 |  | 2000 | 10 | Cc1ncsc1CCN1c2nc(N3C[C@@H]4C[C@H]3CO4)cc(=O)n2C[C@@]1(C)C(F)(F)F [Compound 26, 2-methyl-1-[2-(4-methylthiazol-5-yl)ethyl]-7-(1S,4S)-2-oxa-5-azabicyclo[2.2.1]hept-5-yl-2-((S)-trifluoromethyl)-2,3-dihydro-1H-imidazo[1,2-a]pyrimidin-5-one]
10 |  | 1530 | < 4.5 | Cc1n[nH]c(C)c1CCN1c2nc(N3C[C@@H]4C[C@H]3CO4)cc(=O)n2CC[C@H]1C(F)(F)F [Compound 27, (8S)-9-[2-(3,5-Dimethyl-1H-pyrazol-4-yl)ethyl]-2-(1S,4S)-2-oxa-5-azabicyclo[2.2.1]hept-5-yl-8-trifluoromethyl-6,7,8,9-tetrahydropyrimido[1,2-a]pyrimidin-4-one]
11 | 9 | 2260 |  | Cc1n[nH]c(C)c1CCN1c2nc(N3C[C@@H]4C[C@H]3CO4)cc(=O)n2C[C@@]1(C)C(F)(F)F [Compound 28, 1-[2-(3,5-Dimethyl-1H-pyrazol-4-yl)ethyl]-2-methyl-7-(1S,4S)-2-oxa-5-azabicyclo[2.2.1]hept-5-yl-2-((S)-trifluoromethyl)-2,3-dihydro-1H-imidazo[1,2-a]pyrimidin-5-one]
12 |  | 7930 | 46 | CC(C)(C)C(=O)CN1c2nc(N3C[C@@H]4C[C@H]3CO4)cc(=O)n2CC[C@H]1C(F)(F)F [Compound 29, (8S)-9-(3,3-dimethyl-2-oxobutyl)-2-(1S,4S)-2-oxa-5-azabicyclo[2.2.1]hept-5-yl-8-trifluoromethyl-6,7,8,9-tetrahydropyrimido[1,2-a]pyrimidin-4-one]
13 | > 240 | > 10000 |  | CC(C)(C)C(=O)CN1c2nc(N3C[C@@H]4C[C@H]3CO4)cc(=O)n2C[C@@]1(C)C(F)(F)F [Compound 30, 1-(3,3-Dimethyl-2-oxobutyl)-2-methyl-7-(1S,4S)-2-oxa-5-azabicyclo[2.2.1]hept-5-yl-2-((S)-trifluoromethyl)-2,3-dihydro-1H-imidazo[1,2-a]pyrimidin-5-one]
14 |  | 6350 | 75 | Cc1cc(C(=O)CN2c3nc(N4C[C@@H]5C[C@H]4CO5)cc(=O)n3CC[C@H]2C(F)(F)F)cnc1N [Compound 31, (8S)-9-[2-(6-Amino-5-methylpyrid-3-yl)-2-oxoethyl]-2-(1S,4S)-2-oxa-5-azabicyclo[2.2.1]hept-5-yl-8-trifluoromethyl-6,7,8,9-tetrahydropyrimido[1,2-a]pyrimidin-4-one]
15 | 4 | 3700 |  | C[C@@]1(C(F)(F)F)Cn2c(nc(N3C[C@@H]4C[C@H]3CO4)cc2=O)N1CCc1ccc(N)cc1 [Compound 32, 1-[2-(4-Aminophenyl)ethyl]-2-methyl-7-(1S,4S)-2-oxa-5-azabicyclo[2.2.1]hept-5-yl-2-((S)-trifluoromethyl)-2,3-dihydro-1H-imidazo[1,2-a]pyrimidin-5-one]
16 | 4000 | > 10000 |  | O=C(CN1c2nc(N3C[C@@H]4C[C@H]3CO4)cc(=O)n2CC[C@H]1C(F)(F)F)c1ccc(C(F)(F)F)nc1 [Compound 33, (8S)-2-(1S,4S)-2-Oxa-5-azabicyclo[2.2.1]hept-5-yl-9-[2-oxo-2-(6-trifluoromethylpyrid-3-yl)ethyl]-8-trifluoromethyl-6,7,8,9-tetrahydropyrimido[1,2-a]pyrimidin-4-one]
17 |  | > 10000 | > 200 | CN(CCO)c1ccc(C(=O)CN2c3nc(N4C[C@@H]5C[C@H]4CO5)cc(=O)n3CC[C@H]2C(F)(F)F)cn1 [Compound 34, (8S)-9-(2-{6-[(2-Hydroxyethyl)methylamino]pyrid-3-yl}-2-oxoethyl)-2-(1S,4S)-2-oxa-5-azabicyclo[2.2.1]hept-5-yl-8-trifluoromethyl-6,7,8,9-tetrahydropyrimido[1,2-a]pyrimidin-4-one]
18 |  | > 10000 | > 210 | CCOc1ccc(C(=O)CN2c3nc(N4C[C@@H]5C[C@H]4CO5)cc(=O)n3CC[C@H]2C(F)(F)F)cn1 [Compound 35, (8S)-9-[2-(6-Ethoxypyrid-3-yl)-2-oxoethyl]-2-(1S,4S)-2-oxa-5-azabicyclo[2.2.1]hept-5-yl-8-trifluoromethyl-6,7,8,9-tetrahydropyrimido[1,2-a]pyrimidin-4-one]
19 |  | > 10000 | 240 | Cc1c(C(=O)CN2c3nc(N4C[C@@H]5C[C@H]4CO5)cc(=O)n3CC[C@H]2C(F)(F)F)cnc(N)c1C [Compound 36, (8S)-9-[2-(6-Amino-4,5-dimethylpyrid-3-yl)-2-oxoethyl]-2-(1S,4S)-2-oxa-5-azabicyclo[2.2.1]hept-5-yl-8-trifluoromethyl-6,7,8,9-tetrahydropyrimido[1,2-a]pyrimidin-4-one]
20 |  | > 10000 | 230 | O=C(CN1c2nc(N3C[C@@H]4C[C@H]3CO4)cc(=O)n2CC[C@H]1C(F)(F)F)c1ccc(OC(F)F)cc1 [Compound 37, (S)-9-[2-(4-Difluoromethoxyphenyl)-2-oxoethyl]-2-(1S,4S)-2-oxa-5-azabicyclo[2.2.1]hept-5-yl-8-trifluoromethyl-6,7,8,9-tetrahydropyrimido[1,2-a]pyrimidin-4-one]

Source: patent publication US9321790B2, “Pyrimidinone derivatives as antimalarial agents” (SANOFI, priority 2012, dated 2016)
